The subject of one data set is nuclear STK33. Description: Needle biopsy tumor samples before and after 28 days treatment, phase I patients: nuclear STK33 staining. The format is in vivo, human. The note with it: after 28 days treatment, patient with positive NANOG and STK33 staining. As for the experimental part:
(§1) Understanding the clinical relevance of the stemness markers and identifying predictive biomarkers assists clinical development by selecting patients that will most likely to derive clinical benefit from treatment with the Compound of the Invention. In current studies, we studied stemness gene marker in biopsy tumor as well as archival tumor samples from patients. […] Archival tissue from patients receiving the Compound of the Invention was analyzed via immunohistochemistry to determine whether response to the drug was correlated with either NANOG or STK33. […] Importantly, 90.9% of the tumors with STK33 nuclear staining were also positive for nuclear NANOG staining and there was a significant correlation between nuclear STK33 and nuclear NANOG (P<0.0022).

A further data set concerns nuclear NANOG. The data set can be described thus: Needle biopsy tumor samples before and after 28 days treatment, phase I patients: nuclear NANOG staining. The note with it: after 28 days treatment, patient with positive NANOG and STK33 staining. Format: in vivo, human. On the procedure: as §1
The subject of a further data set is cancer stem cell markers. The data set can be described thus: Cancer stem cell markers in biopsied tumor tissue of study patients. Format: in vivo, human. As for the experimental part:
Escalating doses from 10 mg to 450 mg once daily were administered to 26 patients. Maximum tolerated dose (MTD) was not reached. […] Of 20 evaluable patients, 11 (55%) had stable disease (SD) with a median time to progression of 16 weeks.
Encouraging signs of anti-tumor activity have been observed in pretreated patients with advanced cancer.

The subject of the next data set is Advanced Solid Tumors. The data set can be described thus: Dose escalation study of the Compound of the Invention in adult patients with advanced solid tumors (Phase I). Format: in vivo. From the text:
In this study, the Compound of the Invention was given orally, continuously, in 28-day cycles until disease progression, unacceptable toxicity, or other discontinuation criteria were met.

These results are taken from patent publication US9795595B2, “Methods for treating cancer” (Boston Biomedical, Inc., priority 2014, dated 2017).

Turning to `CCN(CC)CCNC(=O)c1c(C)[nH]c(/C=C2\C(=O)Nc3ccc(-c4csc(-c5ccccc5)n4)cc32)c1C` [Compound of the Invention], the “Reduction of nuclear STK33” value in the data set on nuclear STK33 was “potent in reducing nuclear NANOG and STK33”. Moreover, the “Reduction of nuclear NANOG” value with nuclear NANOG is on record as “potent in reducing nuclear NANOG”. Moreover, the “Inhibition of cancer stem cell markers” value in the data set on cancer stem cell markers is given as “inhibition of cancer stem cell markers was observed”. Also, in the data set with Advanced Solid Tumors, the “Patients with tumor regression and/or prolonged stable disease (≧16 weeks), percent” value is recorded as 50%. Besides, the “Grade 3 diarrhea, number of subjects” value with Advanced Solid Tumors (450 mg once daily) was 2 subjects. Further, the “Number of Patients with minor regression or SD ≧16 wks.” value with Advanced Solid Tumors (Colorectal Cancer, 5 patients evaluable) was 3; with Advanced Solid Tumors (Gastric/GEJ Adenocarcinoma, 1 patient evaluable), 1; in the data set on Advanced Solid Tumors (Head & Neck Cancer, 2 patients evaluable), 2; in the data set with Advanced Solid Tumors (Hepatocellular Carcinoma, 2 patients evaluable) it was 1; in the data set with Advanced Solid Tumors (Non-Small Cell Lung Cancer, 1 patient evaluable) it was 1; with Advanced Solid Tumors (Pancreatic Neuroendocrine, 1 patient evaluable), 1. The “Number of Patients with minor regression or SD ≧16 wks.” value with Advanced Solid Tumors (Renal Cell Carcinoma, 1 patient evaluable) stood at 1. In addition, the “Maximum tolerated dose (MTD)” value in the data set with Advanced Solid Tumors (escalating doses 10 mg to 450 mg once daily, oral, 28-day cycles, 26 patients) is on record as “not reached”. Also, the Adverse events result with Advanced Solid Tumors (including grade 1, 2 diarrhea, abdominal cramping, nausea, anorexia) is on record as “mild GI adverse events”. The “Patients with stable disease (SD), number” value with Advanced Solid Tumors (of 20 evaluable patients) is given as 11. Also, in the data set on Advanced Solid Tumors (of 20 evaluable patients), the “Patients with stable disease (SD), percent” value stood at 55%. Further, the “Patients with tumor regression and/or prolonged stable disease (≧16 weeks), number” value in the data set with Advanced Solid Tumors (of those patients with SD) stood at 10. For the same compound, in the data set on Advanced Solid Tumors (once daily, oral), the “Recommended Phase II Dose (RP2D)” value amounted to 300 mg. In addition, the “Pharmacokinetic exposure relative to predicted therapeutic level” value with Advanced Solid Tumors (oral, once daily) is “well above the predicted therapeutic level”. The “Plasma concentration versus dose” value in the data set with Advanced Solid Tumors (oral, once daily) was “dose-dependent increases in plasma concentration up to 300 mg once daily”. For the same compound, the Tolerability entry in the data set with Advanced Solid Tumors (oral, once daily, 10 mg to 450 mg) is “well tolerated”. The Overall survival result in the data set with Advanced Solid Tumors (patients with high levels of nuclear STK33 in archival tissue, P<0.0097) was “improved”. In addition, the “Median progression free survival (PFS)” value with Advanced Solid Tumors (patients with high levels of nuclear STK33 in archival tissue, P<0.0273) is “improved”. Also, the “Median time to progression” value in the data set with Advanced Solid Tumors (patients with stable disease) is 16 weeks.
